Species on record: Rattus norvegicus
Assay: Open TG-GATES - Regimen: Daily Repeat
Type: toxicity, organism-based, Sprague-Dawley
Design: regimen Daily Repeat, gender Male, age 6 weeks
Conditions: in vivo, po, route gavage; for APTT / Bas / Eos / Fbg / Ht / Lym / MCHC / MCV / Mono / PT / Plat / RBC / Ret / WBC: tissue Blood; for KIDNEY_L / KIDNEY_R / KIDNEY_TOTAL: tissue Kidney; for LIVER: tissue Liver; for ALP / ALT / AST / BUN / CRE / Ca / Cl / DBIL / IP / LDH / Na / PL / RALB / TBIL / TC / TG / TP / gamma-GTP: tissue Plasma
[1] = 0 mg/kg, 72 h, dose level Control, time 3 day
[2] = 0 mg/kg, […], dose level Control, time 7 day
[3] = 0 mg/kg, […], dose level Control, time 14 day
[4] = 0 mg/kg, […], dose level Control, time 28 day
[5] = 40 mg/kg, 72 h, dose level Low, time 3 day
[6] = 40 mg/kg, […], dose level Low, time 7 day
[7] = 40 mg/kg, […], dose level Low, time 14 day
[8] = 40 mg/kg, […], dose level Low, time 28 day

## CC(C)N(CCC(C(N)=O)(c1ccccc1)c1ccccn1)C(C)C (stereo not given) [DISOPYRAMIDE]
[1]
  TERMINAL_BW: 230.2 g
  APTT: 22 s
  Bas: 0%
  Eos: 1.2%
  Fbg: 325.2 mg/dL
  Ht: 39.9%
  Lym: 76.8%
  MCHC: 32%
  MCV: 64.5 fL
  Mono: 2.8%
  PT: 15.8 s
  Plat: 130.4 x10_4/uL
  RBC: 617.8 x10_4/ul
  Ret: 7.1%
  WBC: 99.7 x10_2/uL
  KIDNEY_L: 1 g
  KIDNEY_R: 1 g
  KIDNEY_TOTAL: 2 g
  LIVER: 11 g
  ALP: 1742 IU/L
  ALT: 49.6 IU/L
  AST: 80.8 IU/L
  BUN: 17.6 mg/dL
  CRE: 0.2 mg/dL
  Ca: 10.6 mg/dL
  Cl: 107.2 meq/L
  DBIL: 0 mg/dL
  IP: 7.5 mg/dL
  LDH: 201.8 IU/L
  Na: 143 meq/L
  PL: 140.4 mg/dL
  RALB: 2.9 g/dL
  TBIL: 0 mg/dL
  TC: 71.6 mg/dL
  TG: 88 mg/dL
  TP: 5.5 g/dL
  gamma-GTP: 2 IU/L
[2]
  TERMINAL_BW: 265.2 g
  APTT: 21.6 s
  Bas: 0%
  Eos: 0.8%
  Fbg: 324 mg/dL
  Ht: 39.9%
  Lym: 78%
  MCHC: 32.1%
  MCV: 62.4 fL
  Mono: 2%
  PT: 16.2 s
  Plat: 116.2 x10_4/uL
  RBC: 639.4 x10_4/ul
  Ret: 6.7%
  WBC: 90.3 x10_2/uL
  KIDNEY_L: 1.1 g
  KIDNEY_R: 1.1 g
  KIDNEY_TOTAL: 2.3 g
  LIVER: 13.2 g
  ALP: 1665 IU/L
  ALT: 44 IU/L
  AST: 70.8 IU/L
  BUN: 19 mg/dL
  CRE: 0.2 mg/dL
  Ca: 10.6 mg/dL
  Cl: 106.6 meq/L
  DBIL: 0 mg/dL
  IP: 7.8 mg/dL
  LDH: 199.2 IU/L
  Na: 143.2 meq/L
  PL: 158.6 mg/dL
  RALB: 3 g/dL
  TBIL: 0 mg/dL
  TC: 81.4 mg/dL
  TG: 133.6 mg/dL
  TP: 5.6 g/dL
  gamma-GTP: 2 IU/L
[3]
  TERMINAL_BW: 303.7 g
  APTT: 25.1 s
  Bas: 0%
  Eos: 1%
  Fbg: 319.4 mg/dL
  Ht: 41.9%
  Lym: 80.8%
  MCHC: 33%
  MCV: 58.7 fL
  Mono: 2%
  PT: 15.7 s
  Plat: 113.2 x10_4/uL
  RBC: 715 x10_4/ul
  Ret: 4.4%
  WBC: 124.4 x10_2/uL
  KIDNEY_L: 1.2 g
  KIDNEY_R: 1.3 g
  KIDNEY_TOTAL: 2.5 g
  LIVER: 13.6 g
  ALT: 41.8 IU/L
  AST: 68 IU/L
  BUN: 18.6 mg/dL
  CRE: 0.1 mg/dL
  Ca: 10.3 mg/dL
  Cl: 104.8 meq/L
  DBIL: 0 mg/dL
  IP: 7 mg/dL
  LDH: 142.2 IU/L
  Na: 142.2 meq/L
  PL: 146.4 mg/dL
  RALB: 3 g/dL
  TBIL: 0.004 mg/dL
  TC: 71.2 mg/dL
  TG: 138.2 mg/dL
  TP: 5.7 g/dL
  gamma-GTP: 2.2 IU/L
[4]
  TERMINAL_BW: 406.5 g
  APTT: 24.9 s
  Bas: 0%
  Eos: 1%
  Fbg: 317 mg/dL
  Ht: 42.9%
  Lym: 80%
  MCHC: 33.5%
  MCV: 56.9 fL
  Mono: 2.2%
  PT: 15.7 s
  Plat: 100.4 x10_4/uL
  RBC: 755.2 x10_4/ul
  Ret: 3.4%
  WBC: 136.1 x10_2/uL
  KIDNEY_L: 1.6 g
  KIDNEY_R: 1.6 g
  KIDNEY_TOTAL: 3.1 g
  LIVER: 17.8 g
  ALP: 1292.8 IU/L
  ALT: 36.8 IU/L
  AST: 62.8 IU/L
  BUN: 17.4 mg/dL
  CRE: 0.2 mg/dL
  Ca: 10.4 mg/dL
  Cl: 105 meq/L
  DBIL: 0 mg/dL
  IP: 6.8 mg/dL
  LDH: 199.4 IU/L
  Na: 140.6 meq/L
  PL: 145.4 mg/dL
  RALB: 3.1 g/dL
  TBIL: 0.006 mg/dL
  TC: 70.6 mg/dL
  TG: 181.6 mg/dL
  TP: 6.1 g/dL
  gamma-GTP: 2.2 IU/L
[5]
  TERMINAL_BW: 231.5 g
  APTT: 20.9 s
  Bas: 0%
  Eos: 1.2%
  Fbg: 313.2 mg/dL
  Ht: 39.2%
  Lym: 81.8%
  MCHC: 32.1%
  MCV: 63.9 fL
  Mono: 2.2%
  PT: 16 s
  Plat: 113.5 x10_4/uL
  RBC: 614.4 x10_4/ul
  Ret: 6.2%
  WBC: 87.7 x10_2/uL
  KIDNEY_L: 1.1 g
  KIDNEY_R: 1.1 g
  KIDNEY_TOTAL: 2.1 g
  LIVER: 10.8 g
  ALP: 1494 IU/L
  ALT: 45.4 IU/L
  AST: 75.4 IU/L
  BUN: 15.4 mg/dL
  CRE: 0.2 mg/dL
  Ca: 10.8 mg/dL
  Cl: 107.8 meq/L
  DBIL: 0 mg/dL
  IP: 7.6 mg/dL
  LDH: 188.2 IU/L
  PL: 146.8 mg/dL
  RALB: 3 g/dL
  TBIL: 0 mg/dL
  TC: 73.4 mg/dL
  TG: 122.4 mg/dL
  TP: 5.4 g/dL
  gamma-GTP: 1.8 IU/L
[6]
  TERMINAL_BW: 254.3 g
  APTT: 20.5 s
  Bas: 0%
  Eos: 0.8%
  Fbg: 323.8 mg/dL
  Ht: 40%
  Lym: 83%
  MCHC: 32.7%
  MCV: 61.2 fL
  Mono: 1.8%
  PT: 15.9 s
  Plat: 122.2 x10_4/uL
  RBC: 654 x10_4/ul
  Ret: 6.2%
  WBC: 120.7 x10_2/uL
  KIDNEY_L: 1 g
  KIDNEY_R: 1.1 g
  KIDNEY_TOTAL: 2.1 g
  LIVER: 11.6 g
  ALP: 1528.8 IU/L
  ALT: 48.2 IU/L
  AST: 72.2 IU/L
  BUN: 16.4 mg/dL
  CRE: 0.1 mg/dL
  Ca: 10.4 mg/dL
  Cl: 106.8 meq/L
  DBIL: 0.002 mg/dL
  IP: 7.7 mg/dL
  LDH: 149.8 IU/L
  Na: 143.2 meq/L
  PL: 141.6 mg/dL
  RALB: 2.9 g/dL
  TBIL: 0 mg/dL
  TC: 73.4 mg/dL
  TG: 115.6 mg/dL
  TP: 5.4 g/dL
  gamma-GTP: 1.8 IU/L
[7]
  TERMINAL_BW: 308.2 g
  APTT: 23.9 s
  Bas: 0%
  Eos: 1%
  Fbg: 310.6 mg/dL
  Ht: 41.1%
  Lym: 80.6%
  MCHC: 32.8%
  MCV: 59.7 fL
  Mono: 2.2%
  PT: 15.3 s
  Plat: 109 x10_4/uL
  RBC: 688.2 x10_4/ul
  Ret: 4.9%
  WBC: 113.4 x10_2/uL
  KIDNEY_L: 1.3 g
  KIDNEY_R: 1.3 g
  KIDNEY_TOTAL: 2.6 g
  LIVER: 14.7 g
  ALP: 1255.8 IU/L
  ALT: 47.8 IU/L
  AST: 75 IU/L
  BUN: 16.8 mg/dL
  CRE: 0.2 mg/dL
  Ca: 10.4 mg/dL
  Cl: 104.8 meq/L
  DBIL: 0 mg/dL
  IP: 7.6 mg/dL
  LDH: 225 IU/L
  Na: 141.6 meq/L
  PL: 147 mg/dL
  RALB: 3.1 g/dL
  TBIL: 0.01 mg/dL
  TC: 73.6 mg/dL
  TG: 131 mg/dL
  TP: 5.7 g/dL
  gamma-GTP: 2.2 IU/L
[8]
  TERMINAL_BW: 375 g
  APTT: 25.5 s
  Bas: 0%
  Eos: 1.2%
  Fbg: 320.2 mg/dL
  Ht: 43.3%
  Lym: 81%
  MCHC: 33.8%
  MCV: 55.7 fL
  Mono: 2.2%
  PT: 15.4 s
  Plat: 110.5 x10_4/uL
  RBC: 776.4 x10_4/ul
  Ret: 2.6%
  WBC: 121.1 x10_2/uL
  KIDNEY_L: 1.4 g
  KIDNEY_R: 1.4 g
  KIDNEY_TOTAL: 2.7 g
  LIVER: 16 g
  ALP: 1094 IU/L
  ALT: 40 IU/L
  AST: 64.6 IU/L
  BUN: 17.4 mg/dL
  CRE: 0.2 mg/dL
  Ca: 10.5 mg/dL
  Cl: 106.4 meq/L
  DBIL: 0 mg/dL
  IP: 6.3 mg/dL
  LDH: 158.6 IU/L
  Na: 140.6 meq/L
  PL: 158 mg/dL
  RALB: 3.1 g/dL
  TBIL: 0.004 mg/dL
  TC: 70 mg/dL
  TG: 205 mg/dL
  TP: 6.1 g/dL
  gamma-GTP: 2.2 IU/L
120 mg/kg, 72 h, dose level Middle, time 3 day
  TERMINAL_BW: 227.1 g
